Among the data in patent publication US20240148821A1, “PHARMACEUTICAL USE OF CYCLIC PEPTIDE COMPOUND” (CHUGAI SEIYAKU KABUSHIKI KAISHA, priority 2021, published 2024) are IC50 values, retold here.

Numbered stars: 1 amine (or outer) side, 2 acyl side, 3 side chain; on linkers, the order of the positions; unused ones are H or OH. Bridge positions count the residues as written; N and C are the ends. Square brackets hold non-standard residues; d marks the D form. Peptide text beside a SMILES is read from it. * marks the point of attachment. hPhe(3-Cl-4-CF3) = N[C@@H](CCc1ccc(C(F)(F)F)c(Cl)c1)C(=O)O; NMePhe(4-CF3) = CN[C@@H](Cc1ccc(C(F)(F)F)cc1)C(=O)O; X25 = COc1ccc(C[C@@H](C(=O)[*:2])N(C)[*:1])cn1; NMeAbu(4,4,4-F3) = CN[C@@H](CC(F)(F)F)C(=O)O; NMePhe(4-Me) = CN[C@@H](Cc1ccc(C)cc1)C(=O)O; NMeGly(cPent) = CN[C@H](C(=O)O)C1CCCC1; NMeCha = CN[C@@H](CC1CCCCC1)C(=O)O; NMehLeu = CN[C@@H](CCC(C)C)C(=O)O; NMeChg = CN[C@H](C(=O)O)C1CCCCC1; NMeD = CN[C@@H](CC(=O)O)C(=O)O; NMeL = CN[C@@H](CC(C)C)C(=O)O; NMeV = CN[C@H](C(=O)O)C(C)C; d(β3hA) = C[C@@H](N)CC(=O)O; NMeS = CN[C@@H](CO)C(=O)O; dNMeS = CN[C@H](CO)C(=O)O; NMeA = CN[C@@H](C)C(=O)O; Piperidide = C1CCN(*)CC1; Pyrrolidide = C1CCN(*)C1; Ac5c = NC1(C(=O)O)CCCC1; Aze = O=C(O)[C@@H]1CCN1; CH2CMe2OH = CC(C)(O)C*; Aib = CC(C)(N)C(=O)O; Isopentyl = CC(C)CC*; X113 = Fc1cncc(C*)c1; NEtG = CCNCC(=O)O; Sar = CNCC(=O)O

In the experiment the test system is Human pancreatic cancer cell line AsPC-1 (G12D mutation Kras). Description: AsPC-1 cell growth inhibition (AsPC-1 CGI). The following applies: read-out: AsPC-1 cell growth inhibition, 50% growth inhibitory concentration (IC50 value); 96 hours, CellTiter-Glo, values classified in ranges. Format: cell-based. Background: In ATP-based viability assays light output follows the ATP content of the culture.
Experimental: Test compounds were serially dilated with dimethyl sulfoxide, and 200 nL was then dispensed to a U-bottom 96-well plate using Labcyte Echo. […] The cell suspension was dispensed to a. plate containing a test compound at 100 μL per well and incubated at 37° C. in a 5% carbon dioxide gas incubator. 96 hours later, 80 μL of CellTiter-Glo (Promega) was added to each well and fluorescence was measured.
As for `CC[C@H](C)[C@@H]1NC(=O)[C@H](CC(F)(F)F)N(C)C(=O)C[C@@H](C(=O)N2CCCC2)N(C)C(=O)[C@H](C2CCCCC2)N(C)C(=O)C2(CCCC2)NC(=O)[C@@H]2CCCN2C(=O)[C@H](CCc2ccc(C(F)(F)F)c(Cl)c2)NC(=O)CN(C)C(=O)[C@H](Cc2ccc(C(F)(F)F)cc2)N(C)C(=O)CN(C)C(=O)CN(C)C1=O` [Compound 245] ([NMeAbu(4,4,4-F3)]I[Sar][Sar][NMePhe(4-CF3)][Sar][hPhe(3-Cl-4-CF3)]P[Ac5c][NMeChg][NMeD]-Pyrrolidide; lactam N-11), the IC50 is no more than 20 nM. In the case of `CC(C)C[C@H]1C(=O)N[C@@H](C(C)C)C(=O)N(C)CC(=O)N(C)CC(=O)N(C)[C@@H](CC2CCCCC2)C(=O)N(C)CC(=O)N[C@@H](CCc2ccc(C(F)(F)F)c(Cl)c2)C(=O)N2CCC[C@H]2C(=O)NC2(CCCC2)C(=O)N(C)[C@@H](CC(C)C)C(=O)N[C@H](C)CC(=O)N1C` [Compound 1452] (cyclo([Ac5c][NMeL][d(β3hA)][NMeL]V[Sar][Sar][NMeCha][Sar][hPhe(3-Cl-4-CF3)]P)), the IC50 was greater than 500 nM. As to `CC[C@H](C)[C@@H]1NC(=O)[C@H](CC(C)C)N(C)C(=O)C[C@@H](C(=O)N2CCCCC2)N(C)C(=O)[C@H](C2CCCCC2)N(C)C(=O)C2(CCCC2)NC(=O)[C@H](Cc2ccc(OC)nc2)N(C)C(=O)[C@H](CCc2ccc(C(F)(F)F)c(Cl)c2)NC(=O)CN(C)C(=O)[C@H](CC2CCCCC2)N(C)C(=O)[C@@H]2CCN2C(=O)CN(C)C1=O` [Compound 614] ([NMeL]I[Sar][Aze][NMeCha][Sar][hPhe(3-Cl-4-CF3)][X25][Ac5c][NMeChg][NMeD]-Piperidide; lactam N-11), the IC50 is greater than 500 nM. `CC[C@H](C)[C@@H]1NC(=O)[C@H](CC(C)C)N(C)C(=O)C[C@@H](C(=O)N2CCCCC2)N(C)C(=O)[C@H](CC(C)C)N(C)C(=O)C(C)(C)NC(=O)[C@H](COCC(C)(C)O)N(C)C(=O)[C@H](CCc2ccc(C(F)(F)F)c(Cl)c2)NC(=O)CN(C)C(=O)[C@H](COCCC(C)C)N(C)C(=O)CN(C)C(=O)CN(C)C1=O` [Compound 1541] ([NMeL]I[Sar][Sar][NMeS](Isopentyl)[Sar][hPhe(3-Cl-4-CF3)][NMeS](CH2CMe2OH)[Aib][NMeL][NMeD]-Piperidide; lactam N-11): the IC50 is greater than 500 nM. Turning to `CC[C@H](C)[C@@H]1NC(=O)[C@H](CCC(C)C)N(C)C(=O)C[C@@H](C(=O)N(C)C)N(C)C(=O)[C@H](C2CCCC2)N(C)C(=O)C2(CCCC2)NC(=O)[C@@H]2CCCN2C(=O)[C@H](CCc2ccc(C(F)(F)F)c(Cl)c2)NC(=O)CN(C)C(=O)[C@H](Cc2ccc(C)cc2)N(C)C(=O)[C@@H]2CCN2C(=O)[C@H](C)NC1=O` [Compound 303] ([NMehLeu]IA[Aze][NMePhe(4-Me)][Sar][hPhe(3-Cl-4-CF3)]P[Ac5c][NMeGly(cPent)][NMeD]-NMe2; lactam N-11), the IC50 was no more than 20 nM. Regarding `CC[C@H](C)[C@@H]1NC(=O)[C@H](CC(C)C)N(C)C(=O)C[C@@H](C(=O)N2CCCCC2)N(C)C(=O)[C@H](C(C)C)N(C)C(=O)C2(CCCC2)NC(=O)[C@@H](CO)N(C)C(=O)[C@H](CCc2ccc(C(F)(F)F)c(Cl)c2)NC(=O)CN(C)C(=O)[C@H](CC2CCCCC2)N(C)C(=O)[C@@H]2CCN2C(=O)[C@H](C)N(C)C1=O` [Compound 1444] ([NMeL]I[NMeA][Aze][NMeCha][Sar][hPhe(3-Cl-4-CF3)][dNMeS][Ac5c][NMeV][NMeD]-Piperidide; lactam N-11), the IC50 is greater than 500 nM. Take `CC[C@H](C)[C@@H]1NC(=O)[C@H](CC(C)C)N(C)C(=O)C[C@@H](C(=O)N2CCCCC2)N(C)C(=O)[C@H](C2CCCCC2)N(C)C(=O)C2(CCCC2)NC(=O)[C@H](COCc2cncc(F)c2)N(C)C(=O)[C@H](CCc2ccc(C(F)(F)F)c(Cl)c2)NC(=O)CN(C)C(=O)[C@H](CC2CCCCC2)N(C)C(=O)CN(C)C(=O)CN(C)C1=O` [Compound 950] ([NMeL]I[Sar][Sar][NMeCha][Sar][hPhe(3-Cl-4-CF3)][NMeS](X113)[Ac5c][NMeChg][NMeD]-Piperidide; lactam N-11): the IC50 was greater than 500 nM. With `CC[C@H](C)[C@@H]1NC(=O)[C@H](CC(C)C)N(C)C(=O)C[C@@H](C)NC(=O)[C@H](CC(C)C)N(C)C(=O)C(C)(C)NC(=O)[C@H](COCC(C)(C)O)N(C)C(=O)[C@H](CCc2ccc(C(F)(F)F)c(Cl)c2)NC(=O)CN(C)C(=O)[C@H](COCCC(C)C)N(C)C(=O)CN(CC)C(=O)CN(C)C1=O` [Compound 1484] (cyclo([Aib][NMeL][d(β3hA)][NMeL]I[Sar][NEtG][NMeS](Isopentyl)[Sar][hPhe(3-Cl-4-CF3)][NMeS](CH2CMe2OH))), the IC50 is greater than 500 nM.
